From EP0366632A1, “Alternative energy substrates” (priority 1988, dated 1990) come the findings set out here.

For data set [1], the system named is Staphylococcus aureus ATCC 6535. The experiment in a line: Microorganism count in 2% and 0.2% ester emulsions (Example 13). Type of data set: cell-based. The method, then: Both of the emulsions included egg-yolk phospholipide 1,2% and sterile water, in addition to ester. The emulsions were prepared aseptically, by emulsifying sterile-filtered ester with a sterilized dispersion of egg-yolk phospholipids.
Aliquots of these emulsions were diluted with phosphate buffer (0.01 M, pH=7.0), in the proportions of 1 and 100 in respective emulsions. Staphylococcus aureus ATCC 6535 was then added to the emulsions. The samples were then incubated at +37°C for 20 hours. The microorganism count was carried out after 1-5 minutes, 2 and 20 hours, in the manner described in microbiological literature. Parallel with the above experiments, a check was made on the phospholipid solution 1,2% and TSB (Tryptone soya broth), by adding Staphylococcus aureus ATCC 6535. The latter substrate was tested to ascertain whether the controlled microorganisms were viable. […] The starting concentration was about 5x10³. […] After 2 hours, the number of microorganisms was 0 and 10 respectively, and after 20 hours 0 and 0 respectively. In the samples containing 5-methyl-3-oxo-hexanoic acid ethyl ester with concentrations of 2% and 0.2%, the number of microorganisms per ml present after 1-5 minutes was 10⁴, after 2 hours 0 and 100 respectively, and after 20 hours 0 and 0 respec tively.

In data set [2] the test system is Candida albicans ATCC 10231. The data set is described as follows: Microorganism count in 2% and 0.2% ester emulsions (Example 15). The data set is classed as cell-based. Particulars: after 20 hours. The method, then:
The emulsions contained egg-yolk phospholipid 1,2% and sterile water, in addition to ester. The emulsions were prepared aseptically, by emulsifying sterile-filtered ester with a sterilized dispersion of egg-yolk phospholipids.
Aliquots of these emulsions were diluted with phosphate buffer (0.01 M, pH=7.0) in the proportions of 1 and 10 and 1 and 100 of respective emulsions. Candida albicans ATCC 10231 was added to the emulsions. The samples were then incubated at +37°C for 20 hours. The microorganism count was carried out after […], 2 and 20 hours, in the manner described in microbiological literature. Parallel with the above tests, a check was made on phospholipide solution 1,2% and TSB (Tryptone soya broth) with additions Candida albicans ATCC 10231. The latter substrate was tested to ascertain whether or not the microorganisms were viable. After 20 hours, the microorganism count/ml in TSB was 10⁷, and in the phospholipid solution 10⁴. The starting concentration was about 10⁴. After 1-5 minutes, the microorganism count per […] of the tests containing 4-methyl-3-oxo-pentanoic acid ethyl ester with concentrations of 2% and 0.2% was 10⁴ and 10⁴ respectively. After 2 hours, the microorganism count was 10² and 10⁴ respectively, and after 20 hours 0 and 10⁴. […] After 20 hours, the count was 0 and 10² respectively.

On the set-up of data set [3]: species or system rabbits. Particulars: rabbit, in vivo. The method, then: Two rabbits weighing between 3.0-3.5 kg were infused intravenously (10 ml/kg body weight) with an emulsion containing 50 mg/ml of 4-methyl-3-oxo-pentanoic acid ethyl ester over a period of 5 minutes. Each rabbit received a dosage of 1.5-1.8 g over a 5 minute period. The emulsion was prepared aseptically, by emusifying sterile-filtered ester with a sterilized dispersion of egg-yolk phospholipids.
Three rabbits weighing 3.0-3.3 kg were infused intravenously (10 ml/kg body weight) with an emulsion containing 30 mg/ml of 4-methyl-3-oxo-pentanoic acid ethyl ester over a period of from 4 to 7 minutes. Each rabbit received a dosage of 0.9-1.05 g. The emulsion was prepared aseptically, by emulsifying sterile-filtered ester with a sterilized dispersion of egg-yolk phospholipids. […] The third rabbit remained normal during the whole of the infusion period. The two unconscious rabbits awakened about 2 minutes after completion of the infusion, and thereafter acted quite normally.

Another data set in a line: Energy density. Type of data set: physicochemical.
Data set [4] has as its system VSV (vesicular stomatitis virus). The data set is classed as cell-based. As to conditions: 0.1% in tissue cultures; A549, GMK and fibroblasts; Figure 2.
Data set [5] in a line: Admixture of ester to distilled water and amino acid solution (Vamin N), 5 days at +5°C. Type of data set: physicochemical. As to the method:
6 g of egg-yolk phospholipids were dissolved in 50 g of 5-methyl-3-oxo-hexanoic acid ethyl ester and 4-methyl-3-oxo-pentanoic acid ethyl ester respectively, while applying and stirring the system. When clear solutions had been obtained, 34 g of absolute alcohol (about 99%) were added, corresponding to the least quantity required for the solutions to remain stable in cold conditions without precipitation of phospholipids. These solutions were autoclaved at +117°C for 20 minutes. Aliquots of these solutions were taken (0.2; 1.0; 3.0 and 5% calculated on ethyl ester) and added respectively to distilled water and to an amino acid solution with a concentration of 7.18% and 9.4 g nitrogen/l (Vamin^R N). Controls were run, in which a pure product of 5-methyl-3-oxo-hexanoic acid ethyl ester and 4-methyl-3-oxo-pen tanoic acidethyl ester respectively were added to distilled water and amino acid solution respectively. All samples were shaken for 10 seconds in a shaking apparatus of the type Whirlimixer^R. The samples were then permitted to stand for 5 calender days in cold conditions (+5°C) and were read-off daily under a daylight lamp, observations being made as to the acceptable quality of the resultant emulsions (visually) or to ascertain the presence or absence of oil droplets on the surface of the emulsions, or separation thereof. […]

For `CCOC(=O)CC(=O)C(C)C` [4-methyl-3-oxo-pentanoic acid ethyl ester], the number of microorganisms in data set [1] (0.2%, after 2 hours) turned out to be 10 per ml; in data set [1] (0.2%, after 20 hours) it was 0 per ml; in data set [1] (2%, after 1-5 minutes, +37°C, starting concentration about 5x10³) it was 100 per ml; in data set [1] (2%, after 2 hours), 0 per ml; in data set [1] (2%, after 20 hours) it was 0 per ml. The microorganism count in data set [2] is 0 per ml. Besides, the “time after completion of the infusion until awakening” value in data set [3] is “about 2 minutes”. Besides, the “time after completion of the infusion until consciousness regained” value in data set [3] was “about 2 minutes”. This compound also gave an energy density in “Energy density” of 27.94 kJ/g.
Turning to `CCOC(=O)CC(=O)CC(C)C` [5-methyl-3-oxo-hexanoic acid ethyl ester], the number of microorganisms is reported as 100 per ml in data set [1] (0.2%, after 2 hours); 0 per ml in data set [1] (0.2%, after 20 hours); 0 per ml in data set [1] (2%, after 2 hours); 0 per ml in data set [1] (2%, after 20 hours). The compound also registered a microorganism count in data set [2] of 0 per ml. For the same compound, in data set [4], the “suppression of replication of VSV” value is on record as “replication can be inhibited”. This compound gave an energy density in the data set “Energy density” of 29.24 kJ/g. Moreover, the “concentration to which the ester can be mixed (accepted samples)” value in data set [5] (free pure ester in amino acid solution (Vamin N)) and in data set [5] (free pure ester in distilled water) was 0.2% each time.
